Several values for one entry are separate records, joined by “and”; a condition that tells them apart may be missing. Equal entries are not always repeated.
Columns and labels:
rTcMVK = biological target: T1, rTcMVK (Trypanosoma cruzi, UniProt A0A165UDJ0); assay: coupled pyruvate kinase / lactate dehydrogenase assay, NADH at […] nm; assay type: biochemical; details: MgCl2 […], glycine pH […] °C, dimer
T1 construct: gene MVK; N-terminal His6 tag (pET-28a, BamHI/HindIII), E. coli BL21; native 34 kDa; active dimer fraction from gel filtration
T1 sequence (A0A165UDJ0 43-364 limits assumed): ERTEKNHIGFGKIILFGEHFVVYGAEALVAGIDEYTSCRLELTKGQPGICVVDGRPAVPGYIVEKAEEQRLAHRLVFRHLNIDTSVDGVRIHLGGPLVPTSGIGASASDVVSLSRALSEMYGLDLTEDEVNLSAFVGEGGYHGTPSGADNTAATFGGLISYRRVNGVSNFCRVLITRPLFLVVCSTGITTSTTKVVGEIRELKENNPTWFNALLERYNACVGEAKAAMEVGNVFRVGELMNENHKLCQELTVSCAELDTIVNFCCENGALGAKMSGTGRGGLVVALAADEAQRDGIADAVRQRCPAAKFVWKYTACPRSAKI

[1] = biological target: recombinant Trypanosoma cruzi mevalonate kinase (rTcMVK) (Trypanosoma cruzi (G strain)); assay: SEC; Superdex 200 High Load 16/60 prep-grade, glycine buffer pH 9.0 with 0.15 M NaCl, after Ni-NTA; separates the oligomerization states of rTcMVK

`CC(O)(CCO)CC(=O)O` (racemic) [(RS)-mevalonic acid] was tested, and the “coupled pyruvate kinase / lactate dehydrogenase assay, NADH at 340 nm” value (rTcMVK; ATP […], racemic mevalonate […] from hydrolysed lactone) was “In vitro assays using synthetic mevalonic acid confirmed enzymatic activity of recombinant TcMVK”.
For `Nc1ncnc2c1ncn2[C@@H]1O[C@H](COP(=O)(O)OP(=O)(O)OP(=O)(O)O)[C@@H](O)[C@H]1O` [ATP], the “coupled pyruvate kinase / lactate dehydrogenase assay, NADH at 340 nm” value (rTcMVK; mevalonate […], blank without ATP) was “Blank assays were performed in the absence of ATP”.
For “recombinant Trypanosoma cruzi mevalonate kinase (rTcMVK) (enzyme)”, the stoichiometry N [1] was 4 and 2.

From article PMC4845012, “Unique behavior of Trypanosoma cruzi mevalonate kinase: A conserved glycosomal enzyme involved in host cell invasion and signaling” (Scientific Reports, 2016)
